Assay results from the supplement of paper PMC10307832.

Key:
Experiment in all cases: relative viability (nuclei count vs DMSO), 5 days (fraction); higher = more cells survive
[1] = compound: CN(c1ncccc1CNc1nc(Nc2ccc3c(c2)CC(=O)N3)ncc1C(F)(F)F)S(C)(=O)=O + CC(=O)Nc1cccc(-n2c(=O)n(C3CC3)c(=O)c3c(Nc4ccc(I)cc4F)n(C)c(=O)c(C)c32)c1 [Trametinib] (partner 0.02 µM)
Method in brief: (§1)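 For relative viability, nuclei counts in treated wells were divided by those in vehicle wells. Lung cancer cell lines had been pin-tool dosed in 1536-well plates the day after seeding and cultured for 5 days, then fixed and stained in one step (final 0.05% Triton X-100, 1% formaldehyde, 1 ug/ml Hoechst) and imaged at 4×. Doses were one drug alone or a fixed anchor-drug dose plus five library-drug doses (not always all listed) in √10 steps, and values are duplicate-plate medians.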

[2] = compound: CN(c1ncccc1CNc1nc(Nc2ccc3c(c2)CC(=O)N3)ncc1C(F)(F)F)S(C)(=O)=O + COc1cccc2cc(-c3nc([C@H]4CC[C@H](C(=O)O)CC4)n4ncnc(N)c34)[nH]c12 [OSI-027] (partner 0.5 µM)
Method in brief: as §1

[3] = compound: CN(c1ncccc1CNc1nc(Nc2ccc3c(c2)CC(=O)N3)ncc1C(F)(F)F)S(C)(=O)=O + CS(=O)(=O)CCNCc1ccc(-c2ccc3ncnc(Nc4ccc(OCc5cccc(F)c5)c(Cl)c4)c3c2)o1 [Lapatinib] (partner 2 µM)
Method in brief: as §1

[4] = compound: CN(c1ncccc1CNc1nc(Nc2ccc3c(c2)CC(=O)N3)ncc1C(F)(F)F)S(C)(=O)=O + C[C@]1(O)C[C@@H](c2nc(-c3ccc4ccc(-c5ccccc5)nc4c3)c3c(N)nccn32)C1 [Linsitinib] (partner 1 µM)
Method in brief: as §1

NCI-H1734 showed a relative viability ([1]; first compound 0.01 µM) of 0.602, a relative viability ([1]; first compound 0.03162 µM) of 0.661 and a relative viability ([1]; first compound 0.1 µM) of 0.663. For the same cell line, the relative viability ([1]; first compound 0.3162 µM) was 0.719, the relative viability ([1]; first compound 1 µM) was 0.539 and the relative viability ([2]; first compound 0.01 µM) was 0.581. For the same cell line, the relative viability ([2]; first compound 0.03162 µM) was 0.612, the relative viability ([2]; first compound 0.1 µM) was 0.534 and the relative viability ([2]; first compound 0.3162 µM) was 0.609. The relative viability ([2]; first compound 1 µM) was 0.545, the relative viability ([3]; first compound 0.01 µM) was 0.993 and the relative viability ([3]; first compound 0.03162 µM) was 1.17. For the same cell line, the relative viability ([3]; first compound 0.1 µM) was 1.06, the relative viability ([3]; first compound 0.3162 µM) was 1.1 and the relative viability ([3]; first compound 1 µM) was 1.05. The relative viability ([4]; first compound 0.01 µM) was 0.939, the relative viability ([4]; first compound 0.03162 µM) was 1.01 and the relative viability ([4]; first compound 0.1 µM) was 0.796. The relative viability ([4]; first compound 0.3162 µM) was 0.966 and the relative viability ([4]; first compound 1 µM) was 0.751.

Cell Line NCI-H1755 has a relative viability ([1]; first compound 0.01 µM) of 0.766, a relative viability ([1]; first compound 0.03162 µM) of 0.833 and a relative viability ([1]; first compound 0.1 µM) of 0.786. It also gave a relative viability ([1]; first compound 0.3162 µM) of 0.758, a relative viability ([1]; first compound 1 µM) of 0.733 and a relative viability ([2]; first compound 0.01 µM) of 0.708. The relative viability ([2]; first compound 0.03162 µM) was 0.789, the relative viability ([2]; first compound 0.1 µM) was 0.737 and the relative viability ([2]; first compound 0.3162 µM) was 0.678. For the same cell line, the relative viability ([2]; first compound 1 µM) was 0.699, the relative viability ([3]; first compound 0.01 µM) was 1.09 and the relative viability ([3]; first compound 0.03162 µM) was 1.08. The relative viability ([3]; first compound 0.1 µM) was 1.01, the relative viability ([3]; first compound 0.3162 µM) was 0.961 and the relative viability ([3]; first compound 1 µM) was 0.957. For the same cell line, the relative viability ([4]; first compound 0.01 µM) was 0.997, the relative viability ([4]; first compound 0.03162 µM) was 0.951 and the relative viability ([4]; first compound 0.1 µM) was 0.961. The relative viability ([4]; first compound 0.3162 µM) was 0.979 and the relative viability ([4]; first compound 1 µM) was 0.908.

In the case of NCI-H1792, the relative viability ([1]; first compound 0.01 µM) is reported as 0.407, the relative viability ([1]; first compound 0.03162 µM) is reported as 0.632 and the relative viability ([1]; first compound 0.1 µM) is reported as 0.433. For the same cell line, the relative viability ([1]; first compound 0.3162 µM) was 0.594, the relative viability ([1]; first compound 1 µM) was 0.42 and the relative viability ([2]; first compound 0.01 µM) was 0.787. The relative viability ([2]; first compound 0.03162 µM) was 0.892, the relative viability ([2]; first compound 0.1 µM) was 0.736 and the relative viability ([2]; first compound 0.3162 µM) was 0.697. It also gave a relative viability ([2]; first compound 1 µM) of 0.688, a relative viability ([3]; first compound 0.01 µM) of 0.93 and a relative viability ([3]; first compound 0.03162 µM) of 0.937. It also gave a relative viability ([3]; first compound 0.1 µM) of 0.905, a relative viability ([3]; first compound 0.3162 µM) of 0.827 and a relative viability ([3]; first compound 1 µM) of 0.835. It also gave a relative viability ([4]; first compound 0.01 µM) of 0.442, a relative viability ([4]; first compound 0.03162 µM) of 0.487 and a relative viability ([4]; first compound 0.1 µM) of 0.512. It also gave a relative viability ([4]; first compound 0.3162 µM) of 0.566 and a relative viability ([4]; first compound 1 µM) of 0.559.

NCI-H1793 gave a relative viability ([1]; first compound 0.01 µM) of 0.473, a relative viability ([1]; first compound 0.03162 µM) of 0.4 and a relative viability ([1]; first compound 0.1 µM) of 0.419. It also gave a relative viability ([1]; first compound 0.3162 µM) of 0.519, a relative viability ([1]; first compound 1 µM) of 0.567 and a relative viability ([2]; first compound 0.01 µM) of 0.238. It also gave a relative viability ([2]; first compound 0.03162 µM) of 0.276, a relative viability ([2]; first compound 0.1 µM) of 0.246 and a relative viability ([2]; first compound 0.3162 µM) of 0.288. The relative viability ([2]; first compound 1 µM) was 0.297, the relative viability ([3]; first compound 0.01 µM) was 0.542 and the relative viability ([3]; first compound 0.03162 µM) was 0.654. The relative viability ([3]; first compound 0.1 µM) was 0.79, the relative viability ([3]; first compound 0.3162 µM) was 0.575 and the relative viability ([3]; first compound 1 µM) was 0.691. For the same cell line, the relative viability ([4]; first compound 0.01 µM) was 0.883, the relative viability ([4]; first compound 0.03162 µM) was 0.929 and the relative viability ([4]; first compound 0.1 µM) was 0.894. It also gave a relative viability ([4]; first compound 0.3162 µM) of 0.857 and a relative viability ([4]; first compound 1 µM) of 0.601.

NCI-H1915 gave a relative viability ([1]; first compound 0.01 µM) of 0.288, a relative viability ([1]; first compound 0.03162 µM) of 0.293 and a relative viability ([1]; first compound 0.1 µM) of 0.293. The relative viability ([1]; first compound 0.3162 µM) was 0.315, the relative viability ([1]; first compound 1 µM) was 0.29 and the relative viability ([2]; first compound 0.01 µM) was 0.639. The relative viability ([2]; first compound 0.03162 µM) was 0.625, the relative viability ([2]; first compound 0.1 µM) was 0.607 and the relative viability ([2]; first compound 0.3162 µM) was 0.684. It also gave a relative viability ([2]; first compound 1 µM) of 0.615, a relative viability ([3]; first compound 0.01 µM) of 0.99 and a relative viability ([3]; first compound 0.03162 µM) of 0.919. It also gave a relative viability ([3]; first compound 0.1 µM) of 0.912, a relative viability ([3]; first compound 0.3162 µM) of 0.93 and a relative viability ([3]; first compound 1 µM) of 0.969. It also gave a relative viability ([4]; first compound 0.01 µM) of 1.1, a relative viability ([4]; first compound 0.03162 µM) of 1.1 and a relative viability ([4]; first compound 0.1 µM) of 0.983. For the same cell line, the relative viability ([4]; first compound 0.3162 µM) was 1.1 and the relative viability ([4]; first compound 1 µM) was 1.02.

Work on NCI-H1944 yielded a relative viability ([1]; first compound 0.01 µM) of 0.412, a relative viability ([1]; first compound 0.03162 µM) of 0.45 and a relative viability ([1]; first compound 0.1 µM) of 0.39. For the same cell line, the relative viability ([1]; first compound 0.3162 µM) was 0.449, the relative viability ([1]; first compound 1 µM) was 0.412 and the relative viability ([2]; first compound 0.01 µM) was 0.401. It also gave a relative viability ([2]; first compound 0.03162 µM) of 0.445, a relative viability ([2]; first compound 0.1 µM) of 0.38 and a relative viability ([2]; first compound 0.3162 µM) of 0.453. For the same cell line, the relative viability ([2]; first compound 1 µM) was 0.439, the relative viability ([3]; first compound 0.01 µM) was 0.815 and the relative viability ([3]; first compound 0.03162 µM) was 0.898. The relative viability ([3]; first compound 0.1 µM) was 0.782, the relative viability ([3]; first compound 0.3162 µM) was 0.869 and the relative viability ([3]; first compound 1 µM) was 0.792. The relative viability ([4]; first compound 0.01 µM) was 1.22, the relative viability ([4]; first compound 0.03162 µM) was 1.18 and the relative viability ([4]; first compound 0.1 µM) was 1.16. It also gave a relative viability ([4]; first compound 0.3162 µM) of 1.13 and a relative viability ([4]; first compound 1 µM) of 1.28.

Work on NCI-H1975 yielded a relative viability ([1]; first compound 0.01 µM) of 0.358, a relative viability ([1]; first compound 0.03162 µM) of 0.348 and a relative viability ([1]; first compound 0.1 µM) of 0.461. For the same cell line, the relative viability ([1]; first compound 0.3162 µM) was 0.342, the relative viability ([1]; first compound 1 µM) was 0.315 and the relative viability ([2]; first compound 0.01 µM) was 0.747. It also gave a relative viability ([2]; first compound 0.03162 µM) of 0.675, a relative viability ([2]; first compound 0.1 µM) of 0.796 and a relative viability ([2]; first compound 0.3162 µM) of 0.694. The relative viability ([2]; first compound 1 µM) was 0.615, the relative viability ([3]; first compound 0.01 µM) was 0.921 and the relative viability ([3]; first compound 0.03162 µM) was 0.971. For the same cell line, the relative viability ([3]; first compound 0.1 µM) was 0.914, the relative viability ([3]; first compound 0.3162 µM) was 0.926 and the relative viability ([3]; first compound 1 µM) was 0.723. For the same cell line, the relative viability ([4]; first compound 0.01 µM) was 1.01, the relative viability ([4]; first compound 0.03162 µM) was 1.22 and the relative viability ([4]; first compound 0.1 µM) was 1.02. It also gave a relative viability ([4]; first compound 0.3162 µM) of 0.925 and a relative viability ([4]; first compound 1 µM) of 0.821.

With NCI-H1993 the relative viability ([1]; first compound 0.01 µM) was 0.481, the relative viability ([1]; first compound 0.03162 µM) was 0.547 and the relative viability ([1]; first compound 0.1 µM) was 0.669. For the same cell line, the relative viability ([1]; first compound 0.3162 µM) was 0.409, the relative viability ([1]; first compound 1 µM) was 0.585 and the relative viability ([2]; first compound 0.01 µM) was 0.456. For the same cell line, the relative viability ([2]; first compound 0.03162 µM) was 0.508, the relative viability ([2]; first compound 0.1 µM) was 0.5 and the relative viability ([2]; first compound 0.3162 µM) was 0.541. The relative viability ([2]; first compound 1 µM) was 0.525, the relative viability ([3]; first compound 0.01 µM) was 0.804 and the relative viability ([3]; first compound 0.03162 µM) was 0.91. It also gave a relative viability ([3]; first compound 0.1 µM) of 0.82, a relative viability ([3]; first compound 0.3162 µM) of 0.889 and a relative viability ([3]; first compound 1 µM) of 0.769. It also gave a relative viability ([4]; first compound 0.01 µM) of 0.678, a relative viability ([4]; first compound 0.03162 µM) of 0.727 and a relative viability ([4]; first compound 0.1 µM) of 0.78. The relative viability ([4]; first compound 0.3162 µM) was 0.771 and the relative viability ([4]; first compound 1 µM) was 0.736.
